Assay results: PubChem BioAssay (NCI)
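Exposure lasted 48 hours, with cells grown in 96-well plates and compounds tested at five concentrations. At the GI50, growth is halved. TGI denotes the concentration required for complete inhibition of growth.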

Tests used:
Experiment in all cases: NCI tumour cell line growth inhibition, 48 h
[1] = tested on: NCI/ADR-RES ovarian
[2] = tested on: MCF7 breast
[3] = tested on: NCI-H460 lung
[4] = tested on: COLO 205 colon
[5] = tested on: SN12C renal
[6] = tested on: HCT-116 colon
[7] = tested on: SNB-19 CNS
[8] = tested on: HL-60(TB) leukemia
[9] = tested on: HOP-62 NSCLC
[10] = tested on: MDA-MB-435
[11] = tested on: SNB-75 CNS
[12] = tested on: UACC-62 melanoma
[13] = tested on: OVCAR-4 ovarian
[14] = tested on: LOX IMVI melanoma
[15] = tested on: NCI-H522 lung
[16] = tested on: EKVX NSCLC
[17] = tested on: KM12 colon
[18] = tested on: A498 renal
[19] = tested on: SK-MEL-2 melanoma
[20] = tested on: K-562 leukemia
[21] = tested on: MOLT-4 leukemia
[22] = tested on: CAKI-1 renal
[23] = tested on: HT29 colon
[24] = tested on: SF-268 CNS
[25] = tested on: MDA-MB-231 breast
[26] = tested on: OVCAR-5 ovarian
[27] = tested on: HS 578T breast
[28] = tested on: TK-10 renal
[29] = tested on: A549 NSCLC
[30] = tested on: U251 CNS
[31] = tested on: MALME-3M melanoma
[32] = tested on: BT-549 breast
[33] = tested on: OVCAR-8 ovarian
[34] = tested on: SK-MEL-5 melanoma
[35] = tested on: PC-3 prostate
[36] = tested on: IGROV1 ovarian
[37] = tested on: SK-OV-3 ovarian
[38] = tested on: RPMI-8226 leukemia
[39] = tested on: UO-31 renal
[40] = tested on: RXF 393 renal
[41] = tested on: SK-MEL-28 melanoma
[42] = tested on: SW-620 colon
[43] = tested on: DU-145 prostate
[44] = tested on: ACHN renal
[45] = tested on: SF-295 CNS
[46] = tested on: HCT-15 colon
[47] = tested on: SF-539 CNS
[48] = tested on: M14 melanoma
[49] = tested on: 786-0 renal
[50] = tested on: HCC-2998 colon
[51] = tested on: OVCAR-3 ovarian
[52] = tested on: T-47D breast
[53] = tested on: NCI-H23 lung
[54] = tested on: UACC-257 melanoma
[55] = tested on: HOP-92 NSCLC
[56] = tested on: NCI-H226 lung

For Fc1ccc(-c2ncn(C3CCNCC3)c2-c2ccnc(Oc3cccc(C(F)(F)F)c3)n2)cc1, the GI50 [1] was 4.27 µM, the TGI [1] was 9.03 µM and the GI50 [2] was 3.68 µM. The TGI [2] was 7.3 µM, the GI50 [3] was 3.82 µM and the TGI [3] was 7.81 µM. It also gave a GI50 [4] of 3.83 µM, a TGI [4] of 7.45 µM and a GI50 [5] of 3.93 µM. It also gave a TGI [5] of 7.47 µM, a GI50 [6] of 3.65 µM and a TGI [6] of 7.29 µM. For the same molecule, the GI50 [7] was 3.94 µM, the TGI [7] was 7.67 µM and the GI50 [8] was 4.58 µM. The TGI [8] was 9.6 µM, the GI50 [9] was 3.75 µM and the TGI [9] was 7.47 µM. For the same molecule, the GI50 [10] was 3.99 µM, the TGI [10] was 8.15 µM and the GI50 [11] was 2.01 µM. For the same molecule, the TGI [11] was 6.52 µM, the GI50 [12] was 4.05 µM and the TGI [12] was 7.59 µM. The GI50 [13] was 3.62 µM, the TGI [13] was 7.26 µM and the GI50 [14] was 8.96 µM. For the same molecule, the TGI [14] was 14.1 µM, the GI50 [15] was 4.03 µM and the TGI [15] was 7.95 µM. The GI50 [16] was 3.63 µM, the TGI [16] was 8.3 µM and the GI50 [17] was 3.93 µM. For the same molecule, the TGI [17] was 7.36 µM, the GI50 [18] was 1.37 µM and the TGI [18] was 6.91 µM. It also gave a GI50 [19] of 4.62 µM, a TGI [19] of 8.84 µM and a GI50 [20] of 3.8 µM. It also gave a TGI [20] of 9.12 µM, a GI50 [21] of 4.15 µM and a TGI [21] of 9.48 µM. It also gave a GI50 [22] of 4.38 µM, a TGI [22] of 9.12 µM and a GI50 [23] of 2.54 µM. The TGI [23] was 5.54 µM, the GI50 [24] was 3.64 µM and the TGI [24] was 7.37 µM. It also gave a GI50 [25] of 3.96 µM, a TGI [25] of 7.56 µM and a GI50 [26] of 3.21 µM. It also gave a TGI [26] of 6.37 µM, a GI50 [27] of 1.98 µM and a TGI [27] of 7.07 µM. It also gave a GI50 [28] of 3.68 µM, a TGI [28] of 7.22 µM and a GI50 [29] of 4.23 µM. It also gave a TGI [29] of 7.94 µM, a GI50 [30] of 3.61 µM and a TGI [30] of 7.08 µM. It also gave a GI50 [31] of 4.66 µM, a TGI [31] of 10.1 µM and a GI50 [32] of 4.34 µM. For the same molecule, the TGI [32] was 9.51 µM, the GI50 [33] was 4.17 µM and the TGI [33] was 8.58 µM. It also gave a GI50 [34] of 3.28 µM, a TGI [34] of 6.5 µM and a GI50 [35] of 3.7 µM. The TGI [35] was 7.2 µM, the GI50 [36] was 3.67 µM and the TGI [36] was 7.88 µM. It also gave a GI50 [37] of 3.82 µM, a TGI [37] of 7.31 µM and a GI50 [38] of 4.87 µM. The TGI [38] was 11.7 µM, the GI50 [39] was 2.8 µM and the TGI [39] was 6.41 µM. It also gave a GI50 [40] of 2.66 µM, a TGI [40] of 6.42 µM and a GI50 [41] of 3.62 µM. For the same molecule, the TGI [41] was 6.93 µM, the GI50 [42] was 3.56 µM and the TGI [42] was 7.03 µM. It also gave a GI50 [43] of 3.99 µM, a TGI [43] of 7.37 µM and a GI50 [44] of 3.29 µM. It also gave a TGI [44] of 6.47 µM, a GI50 [45] of 3.92 µM and a TGI [45] of 8.1 µM. For the same molecule, the GI50 [46] was 3.79 µM, the TGI [46] was 7.25 µM and the GI50 [47] was 3.92 µM. It also gave a TGI [47] of 7.68 µM, a GI50 [48] of 4.54 µM and a TGI [48] of 8.73 µM. It also gave a GI50 [49] of 3.82 µM, a TGI [49] of 7.49 µM and a GI50 [50] of 3.92 µM. The TGI [50] was 8.35 µM, the GI50 [51] was 3.88 µM and the TGI [51] was 7.26 µM. The GI50 [52] was 2.93 µM and the TGI [52] was 6.43 µM.

Nc1c(C(=O)N/N=C/c2ccco2)cnn1-c1ccnc2c(C(F)(F)F)cccc12 was tested, and the GI50 [1] was 20.6 µM, the TGI [1] was 41.5 µM and the GI50 [2] was 28 µM. It also gave a TGI [2] of 65.4 µM, a GI50 [3] of 48.1 µM and a TGI [3] of over 100 µM. The GI50 [4] was 24.9 µM, the TGI [4] was 53.8 µM and the GI50 [53] was 35 µM. It also gave a TGI [53] of over 100 µM, a GI50 [5] of 20.2 µM and a TGI [5] of 55 µM. For the same molecule, the GI50 [6] was 18.2 µM, the TGI [6] was 32.2 µM and the GI50 [7] was 40.3 µM. For the same molecule, the TGI [7] was over 100 µM, the GI50 [8] was 25.8 µM and the TGI [8] was 49.5 µM. For the same molecule, the GI50 [9] was 36.5 µM, the TGI [9] was over 100 µM and the GI50 [10] was 26.2 µM. For the same molecule, the TGI [10] was 75.3 µM, the GI50 [11] was 28.1 µM and the TGI [11] was 97.7 µM. The GI50 [12] was 35.9 µM, the TGI [12] was over 100 µM and the GI50 [13] was 33.5 µM. The TGI [13] was over 100 µM, the GI50 [14] was 17.4 µM and the TGI [14] was 31.2 µM. For the same molecule, the GI50 [15] was 29.5 µM, the TGI [15] was over 100 µM and the GI50 [16] was 82.2 µM. It also gave a TGI [16] of over 100 µM, a GI50 [17] of 31.9 µM and a TGI [17] of 75 µM. It also gave a GI50 [19] of 57.4 µM, a TGI [19] of over 100 µM and a GI50 [20] of 24.2 µM. It also gave a TGI [20] of 49.1 µM, a GI50 [21] of 23.9 µM and a TGI [21] of 63.5 µM. The GI50 [22] was 37.5 µM, the TGI [22] was over 100 µM and the GI50 [23] was 19.8 µM. It also gave a TGI [23] of 38.8 µM, a GI50 [24] of 31.6 µM and a TGI [24] of 91.6 µM. The GI50 [25] was 17.3 µM, the TGI [25] was 38.9 µM and the GI50 [26] was 23.3 µM. The TGI [26] was 61.6 µM, the GI50 [27] was 35.4 µM and the TGI [27] was 89.1 µM. For the same molecule, the GI50 [28] was 55.9 µM, the TGI [28] was over 100 µM and the GI50 [29] was over 100 µM. For the same molecule, the TGI [29] was over 100 µM, the GI50 [54] was 95.3 µM and the TGI [54] was over 100 µM. The GI50 [30] was 20.5 µM, the TGI [30] was 40.5 µM and the GI50 [31] was 73.3 µM. For the same molecule, the TGI [31] was over 100 µM, the GI50 [32] was 18.2 µM and the TGI [32] was 40.7 µM. For the same molecule, the GI50 [33] was 24.2 µM, the TGI [33] was 57.1 µM and the GI50 [55] was 25.9 µM. It also gave a TGI [55] of 80.8 µM, a GI50 [34] of 30 µM and a TGI [34] of over 100 µM. For the same molecule, the GI50 [35] was 19.3 µM, the TGI [35] was 49.1 µM and the GI50 [36] was 25.4 µM. For the same molecule, the TGI [36] was 80.1 µM, the GI50 [37] was 86.4 µM and the TGI [37] was over 100 µM. The GI50 [38] was 19.9 µM, the TGI [38] was 54.2 µM and the GI50 [39] was 16.9 µM. The TGI [39] was 33.7 µM, the GI50 [40] was 22.7 µM and the TGI [40] was 43.7 µM. The GI50 [41] was 19.1 µM, the TGI [41] was 36.8 µM and the GI50 [42] was 19.9 µM. It also gave a TGI [42] of 37.3 µM, a GI50 [43] of 18.3 µM and a TGI [43] of 36.5 µM. It also gave a GI50 [44] of 38.6 µM, a TGI [44] of over 100 µM and a GI50 [45] of 38.7 µM. It also gave a TGI [45] of over 100 µM, a GI50 [46] of 18.5 µM and a TGI [46] of 33.1 µM. The GI50 [56] was 88.8 µM, the TGI [56] was over 100 µM and the GI50 [47] was 19.4 µM. The TGI [47] was 41.2 µM, the GI50 [49] was 43.6 µM and the TGI [49] was over 100 µM. The GI50 [50] was 22.8 µM, the TGI [50] was 48.5 µM and the GI50 [51] was 17.8 µM. The TGI [51] was 39 µM, the GI50 [52] was 39.5 µM and the TGI [52] was over 100 µM.
